Marks after values point to notes of the source that are not given here.
Test system: MIA-induced osteoarthritis pain
Experiment: MIA-induced osteoarthritis model, weight bearing difference (WBD) test
Assay type: in vivo
Conditions: rat MIA
Description: Osteoarthritis Pain: To assess the actions of a Compound of Formula (I) for the treatment or prevention of osteoarthritis pain, the rat monosodium iodo-acetate (MIA, i.e., sodium 2-iodoacetate) induced osteoarthritis model was used. Intra-articular injection of MIA causes joint degeneration characterized by osteolysis and swelling, with displacement of the patella, and reductions in bone mineral content and bone mineral density (Pomonis et al., “Development and pharmacological characterization of a rat model of osteoarthritis pain,” Pain 114: 339-346 (2005)). Under isoflurane anaesthesia, an intra-articular injection of 2 mg of MIA (Sigma-Aldrich) in 50 μl of saline was administered through the infrapatellar ligament of the knee joint of the right hind leg of the male, 6 week old Crl:CD(SD) rats. Control rats received an intra-articular injection of 50 μl of saline into the knee joint of the right hind leg. The left knee joint of all rats was untreated. […] Thus, in the assessment for osteoarthritis pain relief through gripping capability determinations, the 24 hour time point was the start of the next day when drug-in-vehicle was again orally administered (24 hours after the prior administration) for certain dosages. […] Weight Bearing Difference Test as an Assessment of Osteoarthritis Related Pain: The weight bearing difference test provides an accepted assessment of the efficacy of clinically useful analgesic drugs with respect of osteoarthritis related pain (see Pomonis et al. (2005)). WBD was assessed using a Linton Incapacitance Tester (Linton Instrumentation, Norfolk, UK). Rats were placed on the apparatus so that they were standing on their hind legs, and allowed to acclimate to the apparatus. When stationary, the weight born on each leg was measured over a 3s period. Three readings were taken for each rat at each time point; the average of the three readings was used for data analysis. WBD was expressed as “% WR”, i.e., the percentage of weight born on the MIA-injected right hind leg, using the following formula: [formula] where WR is the weight on the right hind leg and WL is the weight on the left (untreated) hind leg. […] The “% WRR”, i.e., the percentage reversal of the % WR impediment occurring post-MIA injection, was determined for each dosage at each time point using the following formula: [formula] where (% WR)Post-Drug is the % WR determined at each post-oral-administration time-point for each dose of each administered substance, (% WR)Pre-Drug is the % WR determined pre-oral-administration of each administered substance, and (% WR)Control Rat is the % WR determined for control rats (receiving the saline injection into the right hind leg knee joint). With the exception of the controls (i.e., celecoxib, vehicle) where the student's t-test was used, Dunnett's test was conducted for the % WRR.

SMILES: CC1CN(c2ncc(C(O)CO)cc2F)CCN1C(=O)Nc1nc2cc(F)ccc2s1.O=C(O)C=CC(=O)O (stereo not shown)
- minimal effective dose: 1 mg/kg
- % WRR [mean] (oral 0.3 mg/kg, 1 h after administration): 4.3%
- % WRR [mean] (oral 0.3 mg/kg, 3 h after administration): 12.5%
- % WRR [mean] (oral 0.3 mg/kg, 5 h after administration): 7.1%
- % WRR [mean] (oral 0.3 mg/kg, 7 h after administration): 5.0%
- % WRR [mean] (oral 0.3 mg/kg, 24 h after administration): 0%
- % WRR [mean] (oral 1 mg/kg, 1 h after administration): 15.2%
- % WRR [mean] (oral 1 mg/kg, 3 h after administration): 28.8** %
- % WRR [mean] (oral 1 mg/kg, 3 h after administration, listed as product prepared with Compound A155(a) and fumaric acid): 28.8%
- % WRR [mean] (oral 1 mg/kg, 5 h after administration): 16.1** %
- % WRR [mean] (oral 1 mg/kg, 5 h after administration, listed as product prepared with Compound A155(a) and fumaric acid): 16.1%
- % WRR [mean] (oral 1 mg/kg, 7 h after administration): 8.8* %
- % WRR [mean] (oral 1 mg/kg, 7 h after administration, listed as product prepared with Compound A155(a) and fumaric acid): 8.8%
- % WRR [mean] (oral 1 mg/kg, 24 h after administration): 2.1%
- % WRR [mean] (oral 3 mg/kg, 1 h after administration): 20.9** %
- % WRR [mean] (oral 3 mg/kg, 3 h after administration): 34.5** %
- % WRR [mean] (oral 3 mg/kg, 5 h after administration): 23.4** %
- % WRR [mean] (oral 3 mg/kg, 7 h after administration): 9.5* %
- % WRR [mean] (oral 3 mg/kg, 24 h after administration): 3.7%
- % WRR [mean] (oral 10 mg/kg, 1 h after administration): 33.3** %
- % WRR [mean] (oral 10 mg/kg, 3 h after administration): 44.1** %
- % WRR [mean] (oral 10 mg/kg, 5 h after administration): 35.0** %
- % WRR [mean] (oral 10 mg/kg, 7 h after administration): 22.8** %
- % WRR [mean] (oral 10 mg/kg, 24 h after administration): 9.8%
- % WRR [mean] (oral 20 mg/kg, 1 h after administration): 41.9** %
- % WRR [mean] (oral 20 mg/kg, 1 h after administration, listed as product prepared with Compound A155(a) and fumaric acid): 41.9%
- % WRR [mean] (oral 20 mg/kg, 3 h after administration): 56.9** %
- % WRR [mean] (oral 20 mg/kg, 3 h after administration, listed as product prepared with Compound A155(a) and fumaric acid): 56.9%
- % WRR [mean] (oral 20 mg/kg, 5 h after administration): 46.9** %
- % WRR [mean] (oral 20 mg/kg, 5 h after administration, listed as product prepared with Compound A155(a) and fumaric acid): 46.9%
- % WRR [mean] (oral 20 mg/kg, 7 h after administration): 35.6** %
- % WRR [mean] (oral 20 mg/kg, 7 h after administration, listed as product prepared with Compound A155(a) and fumaric acid): 35.6%
- % WRR [mean] (oral 20 mg/kg, 24 h after administration): 19.8** %
- % WRR [mean] (oral 20 mg/kg, 24 h after administration, listed as product prepared with Compound A155(a) and fumaric acid): 19.8%
